Assay results: publication PMC11243693, “Synthesis and Biological Evaluation of New Compounds with Nitroimidazole Moiety” (Molecules, 2024)

Assays:
[1] = system: normal and cancer cell lines; experiment: MTT assay, normal and cancer cell lines; format: cell-based, human; settings: in words, 1 to 100 µM, 24 h
Experimental: Colon cancer (SW480), breast adenocarcinoma (MDA-MB-231), lung carcinoma (A-549), prostate cancer (PC3), and immortal keratinocyte (HaCaT) cell lines of human origin were acquired from the American Type Culture Collection (ATCC). The recommended culture media and protocols provided by ATCC were as follows: SW480 were cultured in Minimum Essential Medium (MEM), MDA-MB-231, A-549, and HaCaT cells were cultured in Dulbecco’s Modified Eagle Medium (DMEM), while PC3 was cultured in Roswell Park Memorial Institute Medium (RPMI). The culture media were supplemented with 10% fetal bovine serum (FBS), penicillin (100 U/mL), and streptomycin (100 μg/mL). Cells were maintained in a humidified incubator at 37 °C with 5% CO2. Passaging was carried out upon reaching 80–90% confluence using 0.25% trypsin (Gibco Life Technologies, New York, NY, USA) treatment prior to experimentation.
Cell viability was assessed utilizing the MTT assay, which relies on the conversion of 3-(4,5-dimethylthiazol-2-yl)-2,5-diphenyltetrazolium bromide salt (MTT) to formazan crystals by mitochondrial dehydrogenases in viable cells. […] The absorbance of the resulting solution was measured at 570 nm using a UVM 340 reader (ASYS Hitech GmbH, Seekirchen am Wallersee, Austria). IC50 values were determined using GraphPad software (GraphPad Prism 8 Software).

Row | melting point | Compound | cytotoxic potential on normal and cancer cell lines [1]
1 | 233 to 235 °C | COc1cc(O)ccc1C=NNC(=O)c1nc([N+](=O)[O-])cn1C [Compound 33, N’-[(4-hydroxy-2-methoxyphenyl)methylidene]-1-methyl-4-nitro-1H-imidazole-2-carbohydrazide] | did not show cytotoxic activity
2 | 241 to 243 °C | COc1cc(C=NNC(=O)c2nc([N+](=O)[O-])cn2C)ccc1O [Compound 32, N’-[(4-hydroxy-3-methoxyphenyl)methylidene]-1-methyl-4-nitro-1H-imidazole-2-carbohydrazide] | did not show cytotoxic activity
